Reference: patent publication US12384777B2 (Tay Therapeutics Limited, priority 2019, dated 2025)

How the values were obtained:
BRD3(2) = BRD3(2) (Homo sapiens (Human), UniProt Q15059); assay: Bromodomain binding assay, BRD3(2); conditions: single point, screened at 30 times Kd; lower numbers indicate stronger hits
Protocol: (§1) T7 phage strains displaying bromodomains were grown in parallel in 24-well blocks in an E. coli host derived from the BL21 strain. E. coli were grown to log-phase and infected with T7 phage from a frozen stock (multiplicity of infection=0.4) and incubated with shaking at 32° C. until lysis (90-150 min). The lysates were centrifuged (5,000×g) and filtered (0.2 μm) to remove cell debris. Streptavidin-coated magnetic beads were treated with biotinylated small molecule or acetylated peptide ligands for 30 min at RT to generate affinity resins for bromodomain assays. The ligated beads were blocked with excess biotin and washed with blocking buffer (SeaBlock (Pierce), 1% BSA, 0.05% Tween 20, 1 mM DTT) to remove unbound ligand and to reduce non-specific phage binding. Binding reactions were assembled by combining bromodomains, ligated affinity beads, and test compounds in 1× binding buffer (16% SeaBlock, 0.32×PBS, 0.02% BSA, 0.04% Tween 20, 0.004% Sodium azide, 7.9 mM DTT). Test compounds were prepared as 1000× stocks in 100% DMSO and subsequently diluted 1:25 in MEG. The compounds were then diluted directly into the assays such that the final concentrations of DMSO and MEG were 0.1% and 2.4%, respectively. All reactions were performed in polypropylene 384-well plates in a final volume of 0.02 ml. The assay plates were incubated at RT with shaking for 1 hr and the affinity beads were washed with wash buffer (1×PBS, 0.05% Tween 20). The beads were then re-suspended in elution buffer (1×PBS, 0.05% Tween 20, 2 μM non-biotinylated affinity ligand) and incubated at RT with shaking for 30 min. The bromodomain concentration in the eluates was measured by quantitative polymerase chain reaction (qPCR).
(§2) An 11-point 3-fold serial dilution of each test compound was prepared in 100% DMSO at 1000× final test concentration. […] Most dissociation constants were determined using a compound top concentration=10,000 nM. If the initial dissociation constant determined was <0.169 nM (the lowest concentration tested), the measurement was repeated with a serial dilution starting at a lower top concentration. […]

BRD3(1) = BRD3(1) (Homo sapiens (Human), UniProt Q15059); assay: Bromodomain binding assay, BRD3(1); conditions: single point, screened at 30 times Kd; lower numbers indicate stronger hits
Chain of BRD3(1) (Q15059 34-140): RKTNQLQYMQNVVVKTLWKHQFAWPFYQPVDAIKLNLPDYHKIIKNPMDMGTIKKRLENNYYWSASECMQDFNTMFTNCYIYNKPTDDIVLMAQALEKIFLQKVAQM
Protocol: as §1, §2

[1] = Skin penetration (Franz cell); assay type: in vitro ADME; conditions: epidermis of pig/human skin after 24 hour exposure
Protocol: A dosing solution was prepared for each test compound at a saturated concentration in an appropriate formulation mixture. The positive control, caffeine (final concentration 10 mg/mL), was prepared in 50:50 transcutol/water. Warm, degassed phosphate buffered saline (PBS) was applied to the receiving chambers of each jacketed Franz cell (1 cm containing a magnetic stirring bar). Pig/Human skin was removed from −80° C. storage and cut to size (˜2 cm^2) using a scalpel. The skin was then allowed to thaw at RT before being placed into warmed PBS for 10 min. Each skin piece was then dried before being placed onto the orifice of the Franz cell, removing any bubbles that occurred. […]
A calibration line was prepared in PBS (5000 ng/mL-0.2 ng/mL). […] All samples were quantified using UPLC-MS/MS (Waters Xevo TQ-S).
The concentration of compound present at each time point was corrected for the addition of fresh buffer. By plotting the concentration of compound vs time, the J flux and T lag could be calculated (values for caffeine should be approximately J Flux: 0.9-1.1 μg/cm/hr, Tlag: 244-257 min, ˜20% of dose present in receiving chamber after 24 hrs, mass balance 70-90%).
Skin extraction samples were corrected for dilution factor and volume of extraction solution. The quantity of dose measured in skin layers and time point samples were used to measure the mass balance of the experiment.

[2] = test system: healthy human skin stimulated by a Th2 or Th17 biasing cocktail; assay: Th2 and Th17 stimulation of human skin explants, IL-4 / IL-17A mRNA; assay type: cell-based
Protocol: • 1. Freshly excised healthy human skin tissue from abdominoplasties is defatted, cleaned and sectioned into 7 mm biopsies. • 2. The biopsies are placed in Transwell® inserts with the epidermis apical and exposed to air and the dermis submerged in media in the basal chamber. • 3. The biopsies are pre-treated overnight at 37° C., 5% CO2 with different compounds and controls added to the media in the basal chamber. • 4. The next day, contents of the basal chamber is replaced with fresh media containing the test compound and a stimulation cocktail for either Th2 inflammation (proprietary Medpharm cocktail) or Th17 inflammation (mix of antibodies against CD3, CD28, IL-4, IFNγ and recombinant IL-1β, IL-6, IL-21, TGF-β). • 5. The biopsies are incubated at 37° C., 5% CO2 for a further 24 hrs. • 6. After harvesting, the biopsies are cut in half, and one half is homogenized and used for RNA extraction by standard methods. IL-4 or IL-17A is assessed by RT-qPCR.

BRD2(1) = BRD2(1) (Homo sapiens (Human), UniProt P25440); assay: Bromodomain binding assay, BRD2(1); conditions: single point, screened at 30 times Kd; lower numbers indicate stronger hits
Chain of BRD2(1) (P25440 74-180): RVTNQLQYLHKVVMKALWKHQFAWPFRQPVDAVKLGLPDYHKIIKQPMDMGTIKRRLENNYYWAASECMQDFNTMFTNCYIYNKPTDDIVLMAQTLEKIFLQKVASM
Protocol: as §1, §2

Chain of BRD3(2) (Q15059 306-415): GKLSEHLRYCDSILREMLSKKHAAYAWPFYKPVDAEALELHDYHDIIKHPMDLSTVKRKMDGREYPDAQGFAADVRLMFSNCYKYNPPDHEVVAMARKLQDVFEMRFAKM

Cn1cc(-c2cccc(O)c2Oc2ccccc2)c2cc[nH]c2c1=O [Example 1, 4-(3-hydroxy-2-phenoxyphenyl)-6-methyl-1,6-dihydro-7H-pyrrolo[2,3-c]pyridin-7-one]
BRD3(2) % Ctrl (BRD3(2)): 0.05 % Ctrl | BRD3(1) % Ctrl (BRD3(1)): 0 % Ctrl | Epidermal concentration [1]: 27 µM | % reduction in IL-4 mRNA (IL-4) ([2]; 2.5 μM, Th2 biasing cocktail): +++ (> 75% reduction) | % reduction in IL-17A mRNA (IL-17) ([2]; 2.5 μM, Th17 biasing cocktail): +++ (> 75% reduction) | reduction of IL-4 or IL-17 levels ([2]; Th2 or Th17 biasing cocktail): > 50% | BRD2(1) % Ctrl (BRD2(1)): 0 % Ctrl
